Data taken from patent US20250224398A1, “GASDERMIN E EXPRESSION IN HUMAN T CELLS AS A MARKER FOR PROINFLAMMATORY T CELL FUNCTIONS” (LEIBNIZ-INSTITUT FÜR NATURSTOFF-FORSCHUNG UND …, priority 2022, published 2025).
“Also recorded” adds a separate entry of the source. Residues, ends and D or L forms follow the SMILES beside them. *: point of attachment. Cbz = O=C(OCc1ccccc1)*; CH2F = FC*

Tests used:
SGC-7901 and MKN-45 = conditions: cited from earlier work
human Th17 cells [1] = test: Cytokine secretion by stimulated Th17 cells into culture supernatants (ELISA / Luminex); assay type: cell-based; conditions: for IL-1α secretion by Th17 cells: Th17 cells stimulated with anti-CD3 and anti-CD28 mAbs for 5 days, ELISA of supernatants
Method: (§1) Human T cells were cultured in RPMI 1640 medium supplemented with 1% (v/v) GlutaMAX™ Supplement, 1% (v/v) MEM nonessential Amino Acids Solution (100×), 1% (v/v) sodium pyruvate (100 mM), 0.1% 2-Mercaptoethanol (50 mM) (all from Gibco™), 1% (v/v) Penicillin-Streptomycin (Sigma-Aldrich), penicillin (500 U/ml), streptomycin (500 μg/ml), and 10% (v/v) fetal calf serum (Sigma-Aldrich). In some experiments, T cell culture was performed in the presence of recombinant cytokines (IL-6, 50 ng/ml; IL-12, 10 ng/ml; IL-4, 10 ng/ml; TGF-b, 10 ng/ml; IL-1b, 20 ng/ml; all from R&D Systems) or neutralizing antibodies (anti-IL-1a, […], BD Biosciences). […] T cells were stimulated with plate-bound anti-CD3 (2 μg/ml, clone TR66) and anti-CD28 mAbs (2 μg/ml, clone CD28.2; both from BD Biosciences) for 48 h before transfer into uncoated wells for another 3 days for a total culture period of 5 days, unless indicated otherwise in the legends. T cell clones were generated in non-polarizing conditions as described previously following single-cell deposition with fluorescence-activated cell sorting or by limiting dilution cloning (Gross, O. et al. Inflammasome activators induce interleukin-1alpha secretion via distinct pathways with differential requirement for the protease function of caspase-1. Immunity 36, 388-400, doi: 10.1016/j.immuni.2012.01.018 (2012)). Human monocytes were isolated from PBMCs by positive selection with CD14-specific MicroBeads (Miltenyi Biotec). Cells were stimulated with or without 1 μg/mL ultrapure lipopolysaccharide (LPS)-EB (t1r1-3pelps, InvivoGen) for 24 h and nigericin (10 μg/mL, InvivoGen) or ATP (5 mM, Thermo Fisher Scientific) for the last 30 mins. In some experiments, CD14^+ magnetic activated cell sorting (MACS)-sorted monocytes were differentiated into macrophages for 7 days in the presence of GM-CSF (R&D Systems).
(§2) Intracellular cytokine and transcription factor staining was performed as described before (Noster, R. et al. IL-17 and GM-CSF expression are antagonistically regulated by human T helper cells. Sci Transl Med 6, 241ra280, doi: 10.1126/scitranslmed.3008706 (2014)). Cells were stained with the following antibodies: anti-IL-1a-PE (364-3B3-14), anti-IL-4-FITC (MP4-25D2 5), anti-IL-17A-Pacific Blue (BL168), anti-IFN-g-APC-Cy7 (4S.B3), anti-IL-10-PE-Cy7 (JES3-9D7), (all from Biolegend), anti-RORgt-APC (AFKJS-9, eBioscience), anti-Ki67-BV421 (Biolegend), and anti-IL-1R1-PE (FAB269P, R&D Systems). Then, they were analyzed with a BD LSRFortessa (BD Biosciences), a CytoFLEX Flow Cytometer (Beckman Coulter) or a MACSQuant analyzer (Miltenyi Biotec). Flow cytometry data were analyzed with FlowJo software (Tree Star) or with Cytobank (Cytobank Inc.). The concentrations of cytokines in cell culture supernatants were measured by ELISA (Duoset ELISA kits from R&D Systems, Human Caspase-1SimpleStep ELISA Kit (Abcam) or by Luminex (eBioscience) according to standard protocols as indicated in the corresponding figure legends. Counting beads (CountBright™ Absolute Counting Beads, Thermo Fisher Scientific) were used to normalize for cell numbers if analysis of cumulative supernatants obtained from 5-day cell cultures was performed.

human Th17 cells [2] = test: Western blot / Jess Simple Western of Th17 cell lysates for caspase and GSDME cleavage; assay type: cell-based; conditions: for GSDME cleavage / caspase-3 cleavage: Th17 cells stimulated 5 days with anti-CD3 and anti-CD28 mAbs
Method: as §1
Cells were lysed in RIPA buffer (50 mM Tris, 150 mM NaCl, 1 mM EDTA, 0.1% NP-40, pH 7.5) containing protease inhibitor (Roche) and PhosphoSTOP Easypack (Roche). The protein concentrations of cell lysates were determined with a Pierce™ BCA Protein Assay Kit (Thermo Fisher Scientific™). Total protein ([…]) was boiled with 4× Laemmli sample buffer (Bio-Rad Laboratories) containing 355 mM 2-mercaptoethanol (Thermo Fisher Scientific) at 99° C. for 10 min. The supernatants and lysates were separated by SDS-polyacrylamide gel electrophoresis (PAGE) and transferred to a PVDF membrane (Bio-Rad Laboratories) by using a Mini-Protean system (Bio-Rad Laboratories) according to the manufacturer's protocol. The following primary antibodies were used for immunoblotting: mouse anti-human caspase-8 (Cell Signaling Technology), rabbit anti-human caspase-1 (Cell Signaling Technology), rabbit anti-human IL-1α (Abcam), mouse anti-human GAPDH (Merck millipore), mouse anti-human b-actin (Cell Signaling Technology), and rabbit anti-human gasdermin E (Abcam), rabbit anti-human caspase-3 (Cell Signaling Technology), mouse anti-human caspase-8 (Cell Signaling Technology), rabbit anti-human gasdermin D (Cell Signaling Technology), rabbit anti-human cleaved gasdermin D (Cell Signaling Technology), rabbit anti-NLRP3 (Cell Signaling Technology). HRP-conjugated anti-mouse and anti-rabbit IgG antibodies (Cell Signaling Technology) were used as secondary antibodies. Immunoreactive bands were detected by Pierce™ ECL Western Blotting Substrate or SuperSignal™ West Femto Maximum Sensitivity Substrate (both from Thermo Scientific™). Chemiluminescence signals were recorded with an Odyssey Imaging system (LI-COR Biosciences) and analyzed on Image Studio™ Lite (LI-COR Biosciences). Image contrast was enhanced in a linear fashion when necessary. Protein lysates were also prepared for automated Western blotting using a Jess System (ProteinSimple) according to the manufacturer's instructions. […]

human monocytes = test: IL-1a secretion by LPS/nigericin stimulated monocytes (ELISA); assay type: cell-based; conditions: LPS 24 h, nigericin 30 min
Method: as §1, with “Human monocytes were isolated from PBMCs by positive selection with CD14-specific MicroBeads (Miltenyi Biotec). Cells were stimulated with or without 1 μg/mL ultrapure lipopolysaccharide (LPS)-EB (t1r1-3pelps, InvivoGen) for 24 h and nigericin (10 μg/mL, InvivoGen) or ATP (5 mM, Thermo Fisher Scientific) for the last 30 mins. In some experiments, CD14^+ magnetic activated cell sorting (MACS)-sorted monocytes were differentiated into macrophages for 7 days in the presence of GM-CSF (R&D Systems).” left out

human Th17 cells [3] = test: Intracellular cytokine staining and flow cytometry of Th17 cells; assay type: cell-based
Method: as §1, with “In some experiments, CD14^+ magnetic activated cell sorting (MACS)-sorted monocytes were differentiated into macrophages for 7 days in the presence of GM-CSF (R&D Systems).” left out
as §2, with “Cells were stained with the following antibodies: anti-IL-1a-PE (364-3B3-14), anti-IL-4-FITC (MP4-25D2 5), anti-IL-17A-Pacific Blue (BL168), anti-IFN-g-APC-Cy7 (4S.B3), anti-IL-10-PE-Cy7 (JES3-9D7), (all from Biolegend), anti-RORgt-APC (AFKJS-9, eBioscience), anti-Ki67-BV421 (Biolegend), and anti-IL-1R1-PE (FAB269P, R&D Systems).” left out

[4] = tested on: patients suffering from the rare autoinflammatory Schnitzler syndrome; test: Treatment of Schnitzler syndrome patients with IL-1β-neutralizing antibody; IL-1α secretion of ex vivo Th17 cell clones (Luminex) and clinical symptoms; assay type: in vivo, human; conditions: treatment for 6 months; Th17 cell clones restimulated with CD3 and CD28 mAbs for 5 days
Method: Peripheral blood mononuclear cells (PBMCs) were isolated by density gradient centrifugation using Ficoll-Paque Plus (GE Healthcare). CD4^+ T cells were isolated from fresh PBMC by positive selection with CD4-specific MicroBeads (Miltenyi Biotec) using an autoMACS Pro Separator. […]
as §2, with “Cells were stained with the following antibodies: anti-IL-1a-PE (364-3B3-14), anti-IL-4-FITC (MP4-25D2 5), anti-IL-17A-Pacific Blue (BL168), anti-IFN-g-APC-Cy7 (4S.B3), anti-IL-10-PE-Cy7 (JES3-9D7), (all from Biolegend), anti-RORgt-APC (AFKJS-9, eBioscience), anti-Ki67-BV421 (Biolegend), and anti-IL-1R1-PE (FAB269P, R&D Systems).” left out, “performed. […]” for “performed.”

[5] = tested on: patients suffering from the rare autoinflammatory Schnitzler syndrome; conditions: treatment for 6 months; cited from earlier work
[6] = Th17 cells, restimulation with PMA and ionomycin in presence or absence of BFA
[7] = anti-CD3 and anti-CD28 mAb 5 days, PMA and ionomycin restimulation

Molecule: O=c1[nH]cc(F)c(=O)[nH]1 [5-FU]
- cell viability (SGC-7901 and MKN-45; SGC-7901 and MKN-45 treated with 5-FU): significantly decreased
- percentage of PI and APC Annexin-V double positive cells (SGC-7901 and MKN-45; after 5-FU treatment compared to control group): elevated
- release of LDH (SGC-7901 and MKN-45): elevated

Molecule: CC(C)(O)c1coc(S(=O)(=O)NC(=O)Nc2c3c(cc4c2CCC4)CCC3)c1 [MCC950]
- IL-1α secretion by Th17 cells (human Th17 cells [1]): significantly reduced; also recorded: significantly inhibited
- GSDME cleavage (human Th17 cells [2]): significant reduction
- caspase-3 cleavage (human Th17 cells [2]): significant reduction
- caspase-8 cleavage (human Th17 cells [2]; Th17 cells stimulated, day 5): less pronounced

Molecule: CSCC[C@@H](C=O)NC(=O)[C@H](CC(C)C)NC(=O)[C@H](CC(C)C)NC(C)=O [calpain inhibitor, N-Acetyl-L-leucyl-L-leucyl-L-methioninal] (Ac-Leu-Leu-Met-aldehyde)
- IL-1α secretion by Th17 cells (human Th17 cells [1]): dose-dependent reduction
- LPS/nigericin-induced IL-1a secretion by monocytes (human monocytes): not dependent on calpain

Molecule: CC[C@H](C)[C@H](NC(=O)OCc1ccccc1)C(=O)N[C@@H](CCC(=O)OC)C(=O)N[C@H](C(=O)N[C@@H](CC(=O)OC)C(=O)CF)[C@@H](C)O [Z-IETD-FMK] (Cbz-IE(OMe)TD(OMe)-CH2F)
- IL-1α secretion by Th17 cells (human Th17 cells [1]): abrogating
- GSDME cleavage (human Th17 cells [2]): reduced
- caspase-3 cleavage (human Th17 cells [2]): abrogation

Molecule: COC(=O)CC[C@H](NC(=O)[C@H](CC(=O)OC)NC(=O)OCc1ccccc1)C(=O)N[C@H](C(=O)N[C@@H](CC(=O)OC)C(=O)CF)C(C)C [Z-DEVD-FMK]
- IL-1α secretion by Th17 cells (human Th17 cells [1]): abrogating
- GSDME cleavage (human Th17 cells [2]): reduced

Molecule: C[C@H]1CCC/C=C/[C@@H]2C[C@H](O)C[C@H]2[C@H](O)/C=C/C(=O)O1 [BFA, brefeldin A]
- secretion of IL17A into the extracellular space (human Th17 cells [1]; [6]): reduced
- intracellular IL-1α expression (human Th17 cells [3]; [6]): not influenced

Molecule: CC(=O)N[C@@H](Cc1ccc(O)cc1)C(=O)N[C@H](C(=O)N[C@@H](C)C(=O)N[C@@H](CC(=O)O)C(=O)CCl)C(C)C [Ac-YVAD-CMK]
- IL-1α secretion by Th17 cells (human Th17 cells [1]): did not inhibit; also recorded: significantly elevated

Molecule: gevokizumab: IL-1β-neutralizing antibody
- IL-1α production by Th17 cells of Schnitzler syndrome patients [4]: significant reduction
- clinical symptoms [5]: complete resolution

Molecule: canakinumab: IL-1β-neutralizing antibody
- IL-1α production by Th17 cells of Schnitzler syndrome patients [4]: significant reduction
- clinical symptoms [5]: complete resolution

Molecule: C/C=C(/C)C(=O)O[C@H]1C(C)=C2[C@H]([C@@H]1OC(=O)CCCCCCC)[C@@](C)(OC(C)=O)C[C@H](OC(=O)CCC)[C@@]1(O)[C@H]2OC(=O)[C@@]1(C)O [thapsigargin]
- IL-1α secretion by Th17 cells (human Th17 cells [1]): increased

B1: recombinant IL-1α: recombinant IL-1α applied exogenously to Th17 cells (protein, UniProt P01583 113-271, looked up)
Interleukin-1 alpha: SAPFSFLSNVKYNFMRIIKYEFILNDALNQSIIRANDQYLTAAALHNLDEAVKFDMGAYKSSKDDAKITVILRISKTQLYVTAQDEDQPVLLKEMPEIPKTITGSETNLLFFWETHGTKNYFTSVAHPNLFIATKQDYWVCLAGGPPSITDFQILENQA
- IFN-γ expression by Th17 cells (human Th17 cells [3]; [7]): upregulation
- IL-10 expression by Th17 cells (human Th17 cells [3]; [7]): reduced
- IL-17A expression by Th17 cells (human Th17 cells [3]; [7]): upregulation
